From patent US20120015901A1, “METHODS AND PREPARATIONS FOR PROTECTING CRITICALLY ILL PATIENTS” (priority 2009, published 2012)

Key:
[1] = test system: chronologically aging wild type yeast cells; assay: Spontaneous mutation frequency and budding index; assay type: cell-based; conditions: spermidine-treated cultures, 4 mM
Experimental: Spontaneous mutation frequency was determined based on the appearance of mutants able to form colonies on agar plates containing 60 mg/l L-canavanine sulfate according to Fabrizio et al. (Fabrizio et al. (2004) J Cell Biol 166, 1055-1067). Mutation rates were calculated per 10^6 living (colony forming on YEPD) cells. Budding index was assessed by counting the percentage of budded cells after 10 seconds of sonication on ice using Sonifier 250 from Benson (Duty Cycle: 35; Output Control: 2.5) in micrographs of no more than 40 cells. For each sample, at least 500 cells were evaluated.

[2] = test system: pre-aged wild type yeast cells; assay: Stress of pre-aged yeast by heat shock or hydrogen peroxide; assay type: cell-based; conditions: aged to day 24 with 4 mM spermidine; 4 h, 3 mM H2O2 or 42° C.
Experimental: Survival of pre-aged wild type cells stressed for 4 h with hydrogen peroxide (3 mM H2O2) or heat shock (42° C.) compared to unstressed cells. Cells were chronologically aged until day 24 with or without addition of 4 mM spermidine. Data represent means±SEM (n=4). *p<0.05 and ***p<0.001. B) Free thiol group concentration (indicative of oxidative stress level) in blood serum of aging mice with or without (control) supplementation of drinking water with 0.3 and 3 mM spermidine for 200 days. Data represent means±SEM (n=3). **p<0.01. (C) Intracellular spermidine of mouse liver cells, obtained from the same mice used for RSH measurements presented in (B). Data represent means±SEM (n=3).

NCCCCNCCCN [spermidine]
mutation frequency and budding index [1]: neither associated with an increased mutation frequency nor a higher budding index
resistance against stress inflicted by heat shock or H2O2 treatment [2]: strong resistance
